{"source": "ChEMBL document CHEMBL1201862", "about": "“PubChem BioAssay data set” (2004)", "key": {"[1]": {"target": "Protein disulfide-isomerase (Homo sapiens, UniProt P07237)", "sequence (P07237 whole entry)": "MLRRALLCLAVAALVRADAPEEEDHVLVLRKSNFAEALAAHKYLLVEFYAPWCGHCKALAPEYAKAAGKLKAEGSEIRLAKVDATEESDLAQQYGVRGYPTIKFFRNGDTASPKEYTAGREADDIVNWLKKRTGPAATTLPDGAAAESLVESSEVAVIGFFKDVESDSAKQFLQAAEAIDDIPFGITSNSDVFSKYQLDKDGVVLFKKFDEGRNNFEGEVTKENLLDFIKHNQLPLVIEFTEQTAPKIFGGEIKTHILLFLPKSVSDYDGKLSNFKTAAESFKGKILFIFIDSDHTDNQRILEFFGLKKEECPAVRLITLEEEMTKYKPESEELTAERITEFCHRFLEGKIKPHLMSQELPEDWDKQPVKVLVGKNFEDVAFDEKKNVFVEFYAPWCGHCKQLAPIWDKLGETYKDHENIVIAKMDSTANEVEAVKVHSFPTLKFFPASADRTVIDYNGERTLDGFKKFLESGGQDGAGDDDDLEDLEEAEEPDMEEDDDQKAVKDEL", "experiment": "inhibition of PDI-driven insulin aggregation – biochemical, turbidity, absorbance, cherry-picked samples, dose response (AID 602350)", "type": "functional"}, "[2]": {"target": "Serine/threonine-protein kinase pim-1 (Homo sapiens, UniProt P11309)", "sequence (P11309 whole entry)": "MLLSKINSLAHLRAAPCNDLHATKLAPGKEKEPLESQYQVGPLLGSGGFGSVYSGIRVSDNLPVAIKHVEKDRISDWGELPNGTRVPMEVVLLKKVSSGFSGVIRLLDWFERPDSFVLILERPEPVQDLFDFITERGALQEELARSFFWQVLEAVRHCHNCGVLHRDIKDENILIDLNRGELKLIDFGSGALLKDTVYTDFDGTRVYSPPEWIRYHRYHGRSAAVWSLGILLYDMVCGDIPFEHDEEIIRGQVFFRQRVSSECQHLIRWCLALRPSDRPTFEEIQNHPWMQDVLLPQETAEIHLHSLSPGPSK", "type": "functional"}, "[3]": {"target": "Serine/threonine-protein kinase pim-3 (Homo sapiens, UniProt Q86V86)", "type": "functional"}, "[4]": {"target": "Dual specificity protein kinase CLK4 (Homo sapiens, UniProt Q9HAZ1)", "sequence (Q9HAZ1 whole entry)": "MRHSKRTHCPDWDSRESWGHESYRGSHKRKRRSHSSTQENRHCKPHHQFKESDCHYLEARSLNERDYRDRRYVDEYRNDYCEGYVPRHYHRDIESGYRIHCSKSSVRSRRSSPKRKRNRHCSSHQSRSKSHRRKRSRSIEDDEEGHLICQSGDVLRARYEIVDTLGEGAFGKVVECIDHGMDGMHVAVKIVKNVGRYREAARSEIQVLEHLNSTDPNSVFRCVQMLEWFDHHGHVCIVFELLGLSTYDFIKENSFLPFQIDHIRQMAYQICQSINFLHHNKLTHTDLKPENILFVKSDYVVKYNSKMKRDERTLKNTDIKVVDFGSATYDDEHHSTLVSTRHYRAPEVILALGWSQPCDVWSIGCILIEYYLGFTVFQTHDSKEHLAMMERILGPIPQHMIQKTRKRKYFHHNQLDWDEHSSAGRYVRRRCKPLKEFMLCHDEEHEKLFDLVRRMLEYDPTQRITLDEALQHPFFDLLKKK", "type": "functional"}, "[5]": {"experiment": "Vero cell cytotoxicity, cytotoxicity control for M. tuberculosis inhibitor project, purified and synthesized samples, set 3 (AID 504684)", "type": "functional", "conditions": "[…]"}, "[6]": {"experiment": "HepG2 cell cytotoxicity, cytotoxicity control, set 4 (AID 504910)", "type": "functional", "conditions": "Mycobacterium tuberculosis"}, "[7]": {"experiment": "THP-1 cell cytotoxicity, dose response, cytotoxicity control, set 3 (AID 504852)", "type": "functional", "conditions": "Mycobacterium tuberculosis"}, "[8]": {"experiment": "A Cell Based Secondary Assay to Explore Cytotoxicity in THP-1 Cells of Compounds that Modulate Mycobacterium tuberculosis in Media Containing Glycerol versus Media without Glycerol (2).", "type": "functional"}, "[9]": {"experiment": "HepG2 cell cytotoxicity, dose response, cytotoxicity control, set 3 (AID 504853)", "type": "functional", "conditions": "Mycobacterium tuberculosis"}, "[10]": {"experiment": "A Cell Based Secondary Assay to Explore Cytotoxicity in HepG2 Cells of Compounds that Modulate Mycobacterium tuberculosis in Media Containing Glycerol versus Media without Glycerol (2).", "type": "functional"}, "cells": {"experiment": "cells", "type": "functional"}, "[11]": {"experiment": "THP-1 cell cytotoxicity, cytotoxicity control, set 4 (AID 504911)", "type": "functional", "conditions": "Mycobacterium tuberculosis"}, "[12]": {"experiment": "HEK-293T viability loss after treatment – luminescence, T-cell screen hits, cytotoxicity control for TCR NF-kB inhibitor project, dose response (AID 489026);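 note: cells exposed to compound about 14 hours before the viability readout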", "type": "functional, cell-based"}, "[13]": {"experiment": "DRD fibroblast viability loss – cell-based, non-viral oncogenic, luminescence, dose response (AID 1934)", "type": "functional", "conditions": "Homo sapiens"}, "[14]": {"experiment": "Luminescence Cell-Based Dose Response HTS to Identify Inhibitors of 5'UTR Stem-Loop Driven Prion Protein mRNA Translation in H4 Neuroglioblastoma Cells. [Related pubchem assays: 1827 (Project Summary), 1813 (Primary HTS)]", "type": "functional"}, "BJ [15]": {"tested_on": "BJ", "experiment": "BJ-TERT-LT-ST fibroblast viability loss – cell-based, RAS-independent, luminescence, dose response (AID 1935);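 note: BJ fibroblasts immortalized with TERT plus LT and ST oncogenes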", "type": "functional", "conditions": "Homo sapiens"}, "[16]": {"experiment": "luciferase reporter signal suppression in cells – H4 neuroglioma cells, luminescence, dose response (AID 1990)", "type": "functional, cell-based"}, "[17]": {"target": "T1, High affinity choline transporter 1 (Homo sapiens, UniProt Q9GZV3)", "T1 sequence (Q9GZV3 whole entry)": "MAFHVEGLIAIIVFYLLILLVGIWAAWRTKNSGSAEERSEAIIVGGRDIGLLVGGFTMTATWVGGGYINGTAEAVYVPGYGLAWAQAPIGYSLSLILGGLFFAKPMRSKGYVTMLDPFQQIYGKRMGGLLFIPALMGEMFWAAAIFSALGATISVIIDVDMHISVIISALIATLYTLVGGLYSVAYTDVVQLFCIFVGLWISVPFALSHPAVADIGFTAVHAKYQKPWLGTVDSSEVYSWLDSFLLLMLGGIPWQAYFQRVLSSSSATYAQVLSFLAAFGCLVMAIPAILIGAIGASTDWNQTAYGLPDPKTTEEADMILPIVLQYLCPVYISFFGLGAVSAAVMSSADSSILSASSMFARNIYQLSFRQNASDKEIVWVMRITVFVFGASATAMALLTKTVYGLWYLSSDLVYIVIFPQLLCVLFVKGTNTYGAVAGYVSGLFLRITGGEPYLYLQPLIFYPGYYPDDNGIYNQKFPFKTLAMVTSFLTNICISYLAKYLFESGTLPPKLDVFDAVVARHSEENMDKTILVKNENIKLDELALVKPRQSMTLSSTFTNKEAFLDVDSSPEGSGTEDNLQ", "experiment": "human choline transporter potentiators, potency – cell-based, 10-point CRC, membrane potential dye, dose response (AID 602376)", "type": "functional"}, "BJ [18]": {"tested_on": "BJ", "experiment": "cells", "type": "functional, cell-based", "conditions": "Homo sapiens"}, "BJ [19]": {"tested_on": "BJ", "experiment": "BJ-TERT fibroblast viability loss – cell-based, RAS-independent, luminescence, dose response (AID 1933)", "type": "functional", "conditions": "Homo sapiens"}, "[20]": {"experiment": "alpha-synuclein stem-loop luciferase translation blockers – H4 neuroglioma cells, luminescence, confirmation (AID 1988)", "type": "functional, cell-based"}}, "note": "Active and inactive are the calls of the source."}
{"smiles": "Cc1noc(C)c1S(=O)(=O)Nc1ccc2c(c1)CC(=O)N([C@H](C)CO)C[C@H](C)[C@H](CN(C)S(=O)(=O)c1ccccc1)O2", "values": [{"measurement": "AC50", "setting": "[1]", "result": "19.5 µM (active)"}]}
{"smiles": "O=c1[nH]cnc2c(-c3ccccc3)c(C(F)(F)F)sc12", "values": [{"measurement": "Ki", "setting": "[2]", "result": "1.26 µM (active)"}, {"measurement": "Ki", "setting": "[3]", "result": "2.51 µM (active)"}, {"measurement": "Ki", "setting": "[4]", "result": "2 µM (active)"}]}
{"smiles": "Nc1c(C(=O)NC2CCCCC2)nsc1C(=O)OCC(=O)NC1CCCCC1", "values": [{"measurement": "CC50", "setting": "[5]", "result": "> 100 µM (active)"}, {"measurement": "CC50", "setting": "[6]", "result": "> 50 µM (active)"}, {"measurement": "CC50", "setting": "[7]", "result": "> 100 µM (active)"}, {"measurement": "CC50", "setting": "[8]", "result": "> 100 µM (active)"}, {"measurement": "CC50", "setting": "[9]", "result": "> 50 µM (active)"}, {"measurement": "CC50", "setting": "[10]", "result": "> 50 µM (active)"}, {"measurement": "IC50", "setting": "cells", "result": "1.88 µM (active)"}, {"measurement": "CC50", "setting": "[11]", "result": "> 100 µM (active)"}]}
{"smiles": "COc1ccc(OC)c(NS(=O)(=O)c2ccc(N3CCCC3=O)cc2)c1", "values": [{"measurement": "IC50", "setting": "[12]", "result": "> 80 µM (inactive)"}, {"measurement": "EC50", "setting": "[13]", "result": "0.463 µM (active)"}, {"measurement": "EC50", "setting": "[14]", "result": "7.75 µM (active)"}, {"measurement": "EC50", "setting": "BJ [15]", "result": "1.26 µM (inconclusive)"}, {"measurement": "EC50", "setting": "[16]", "result": "3.37 µM (active)"}, {"measurement": "EC50", "setting": "[17]", "result": "22.1 µM (active)"}, {"measurement": "EC50", "setting": "BJ [18]", "result": "27.9 µM (inconclusive)"}, {"measurement": "EC50", "setting": "BJ [19]", "result": "0.812 µM (active)"}, {"measurement": "EC50", "setting": "[20]", "result": "0.247 µM (active)"}]}
